What was measured:
[1] = test system: Human lung cancer cell line A549; assay: A549 cell proliferation suppressive test with anticancer agents in low adhesion plate (ATP, CellTiter-Glo); format: cell-based
Experimental: Deacylated gellan gum (KELCOGEL CG-LA, manufactured by Sansho Co., Ltd.) was suspended in ultra pure water (Milli-Q water) to 0.3% (w/v) or 0.75% (w/v), dissolved by stirring with heating at 90° C., and this aqueous solution was autoclave sterilized at 121° C. for 20 min. Using 0.3% solution, a medium composition was prepared by adding deacylated gellan gum (final concentration 0.015% (w/v)) to DMEM medium (manufactured by WAKO) containing 10% (v/v) fetal bovine serum. Fetal bovine serum was added at 10% (v/v) to a medium composition prepared in Example 7.
Human lung cancer cell line A549 (manufactured by DS PHARMA BIOMEDICAL) was seeded in the above-mentioned medium composition added with deacylated gellan gum (conventional method) or the medium composition of Example 7 at 14800 cells/mL, and dispensed to the wells of a 96 well flat bottom ultra-low adhesive surface microplate (Corning Incorporated manufactured by, #3474) at 135 μL per […]. As a negative control, A549 cells were suspended in the above-mentioned medium free of deacylated gellan gum and dispensed. Each plate was cultured in a static state in a CO2 incubator (37° C., 5% CO2). On day 1 of culture, medium compositions (conventional method and the production method of the present invention) containing each anticancer agent at 10-fold concentration and deacylated gellan gum (final concentration 0.015% (w/v)), and a medium composition containing each anticancer agent alone at 10-fold concentration (non-addition method), 15 μL each, was added to a final concentration of 0.001 to 30 μM, and culture was continued for 7 days. As the anticancer agent, Trametinib (manufactured by Santa Cruz, MEK inhibitor) and MK-2206 (manufactured by Santa Cruz, Akt inhibitor) were used. ATP reagent (150 μL, CellTiter-Glo™ Luminescent Cell Viability Assay, manufactured by Promega) was added to the culture media on days 5 and 8 and suspended therein, stood for about 10 min at room temperature, and the luminescence intensity (RLU value) was measured by FlexStation3 (manufactured by Molecular Devices), from which the luminescence with the medium alone was subtracted to measure the number of viable cells.

[2] = test system: Human pancreatic cancer cell line Panc02,03; assay: Proliferation action on Panc02,03 cell stimulated by each growth factor (ATP, CellTiter-Glo); format: cell-based

## CC(=O)Nc1cccc(-n2c(=O)n(C3CC3)c(=O)c3c(Nc4ccc(I)cc4F)n(C)c(=O)c(C)c32)c1 [Trametinib]
[1]; A549, day 4 of static culture, 0.001 μM, conventional method
  % control of RLU value (ATP measurement, luminescence intensity): 85 % Control
[1]; A549, day 4 of static culture, 0.001 μM, non-addition method
  % control of RLU value (ATP measurement, luminescence intensity): 76 % Control
[1]; A549, day 4 of static culture, 0.001 μM, production method of present invention
  % control of RLU value (ATP measurement, luminescence intensity): 82 % Control
[1]; A549, day 4 of static culture, 0.003 μM, conventional method
  % control of RLU value (ATP measurement, luminescence intensity): 65 % Control
[1]; A549, day 4 of static culture, 0.003 μM, non-addition method
  % control of RLU value (ATP measurement, luminescence intensity): 57 % Control
[1]; A549, day 4 of static culture, 0.003 μM, production method of present invention
  % control of RLU value (ATP measurement, luminescence intensity): 60 % Control
[1]; A549, day 4 of static culture, 0.01 μM, conventional method
  % control of RLU value (ATP measurement, luminescence intensity): 61 % Control
[1]; A549, day 4 of static culture, 0.01 μM, non-addition method
  % control of RLU value (ATP measurement, luminescence intensity): 65 % Control
[1]; A549, day 4 of static culture, 0.01 μM, production method of present invention
  % control of RLU value (ATP measurement, luminescence intensity): 57 % Control
[1]; A549, day 4 of static culture, 0.03 μM, conventional method
  % control of RLU value (ATP measurement, luminescence intensity): 40 % Control
[1]; A549, day 4 of static culture, 0.03 μM, non-addition method
  % control of RLU value (ATP measurement, luminescence intensity): 46 % Control
[1]; A549, day 4 of static culture, 0.03 μM, production method of present invention
  % control of RLU value (ATP measurement, luminescence intensity): 41 % Control
[1]; A549, day 7 of static culture, 0.001 μM, conventional method
  % control of RLU value (ATP measurement, luminescence intensity): 81 % Control
[1]; A549, day 7 of static culture, 0.001 μM, non-addition method
  % control of RLU value (ATP measurement, luminescence intensity): 76 % Control
[1]; A549, day 7 of static culture, 0.001 μM, production method of present invention
  % control of RLU value (ATP measurement, luminescence intensity): 76 % Control
[1]; A549, day 7 of static culture, 0.003 μM, conventional method
  % control of RLU value (ATP measurement, luminescence intensity): 52 % Control
[1]; A549, day 7 of static culture, 0.003 μM, non-addition method
  % control of RLU value (ATP measurement, luminescence intensity): 48 % Control
[1]; A549, day 7 of static culture, 0.003 μM, production method of present invention
  % control of RLU value (ATP measurement, luminescence intensity): 48 % Control
[1]; A549, day 7 of static culture, 0.01 μM, conventional method
  % control of RLU value (ATP measurement, luminescence intensity): 48 % Control
[1]; A549, day 7 of static culture, 0.01 μM, non-addition method
  % control of RLU value (ATP measurement, luminescence intensity): 56 % Control
[1]; A549, day 7 of static culture, 0.01 μM, production method of present invention
  % control of RLU value (ATP measurement, luminescence intensity): 45 % Control
[1]; A549, day 7 of static culture, 0.03 μM, conventional method
  % control of RLU value (ATP measurement, luminescence intensity): 25 % Control
[1]; A549, day 7 of static culture, 0.03 μM, non-addition method
  % control of RLU value (ATP measurement, luminescence intensity): 39 % Control
[1]; A549, day 7 of static culture, 0.03 μM, production method of present invention
  % control of RLU value (ATP measurement, luminescence intensity): 24 % Control

## human EGF: growth factor, manufactured by PEPROTECH
[2]; Panc02,03, 3 ng/mL, medium composition of Example 13, on day 6 (head)
  % control of RLU value (ATP measurement, luminescence intensity): 108 % Control
[2]; Panc02,03, 3 ng/mL, monolayer culture group, culture conditions on day 6 (head)
  % control of RLU value (ATP measurement, luminescence intensity): 105 % Control
[2]; Panc02,03, 3 ng/mL, negative control group (medium free of deacylated gellan gum, low adhesion plate), on day 6 (head)
  % control of RLU value (ATP measurement, luminescence intensity): 117 % Control
[2]; Panc02,03, 30 ng/mL, medium composition of Example 13, on day 6 (head)
  % control of RLU value (ATP measurement, luminescence intensity): 187 % Control
[2]; Panc02,03, 30 ng/mL, monolayer culture group, culture conditions on day 6 (head)
  % control of RLU value (ATP measurement, luminescence intensity): 97 % Control
[2]; Panc02,03, 30 ng/mL, negative control group (medium free of deacylated gellan gum, low adhesion plate), on day 6 (head)
  % control of RLU value (ATP measurement, luminescence intensity): 136 % Control
[2]; compared to a monolayer culture method and negative control group
  efficacy in Panc02,03 cell proliferation test using the medium composition by the production method of the present invention (in words): strongly shown

## human FGF-2: growth factor, manufactured by PEPROTECH
[2]; Panc02,03, 10 ng/mL, medium composition of Example 13, on day 6 (head)
  % control of RLU value (ATP measurement, luminescence intensity): 107 % Control
[2]; Panc02,03, 10 ng/mL, monolayer culture group, culture conditions on day 6 (head)
  % control of RLU value (ATP measurement, luminescence intensity): 108 % Control
[2]; Panc02,03, 10 ng/mL, negative control group (medium free of deacylated gellan gum, low adhesion plate), on day 6 (head)
  % control of RLU value (ATP measurement, luminescence intensity): 118 % Control
[2]; Panc02,03, 100 ng/mL, medium composition of Example 13, on day 6 (head)
  % control of RLU value (ATP measurement, luminescence intensity): 100 % Control
[2]; Panc02,03, 100 ng/mL, monolayer culture group, culture conditions on day 6 (head)
  % control of RLU value (ATP measurement, luminescence intensity): 102 % Control
[2]; Panc02,03, 100 ng/mL, negative control group (medium free of deacylated gellan gum, low adhesion plate), on day 6 (head)
  % control of RLU value (ATP measurement, luminescence intensity): 99 % Control

— patent publication US11345762B2, “Method for preparing liquid medium composition, and preparation device and kit therefor” (NISSAN CHEMICAL INDUSTRIES, LTD., priority 2015, dated 2022)
